Source: patent US20210309619A1, “ISOXAZOLIN-5-ONE DERIVATIVES AND HERBICIDES CONTAINING THE SAME AS ACTIVE INGREDIENTS” (HOKKO CHEMICAL INDUSTRY CO., LTD., priority 2018, published 2021)

What was measured:
Assay type in all cases: in vivo
[1] = test system: Chenopodium album; assay: Herbicidal effect test by treatment of stem and leaf in dry field farming (Test Example 4); details: 120 g/10 a, stem and leaf treatment seven days after seeding, 14 days after treatment
Text: (§1) Herbicidal Rate (%)={1−(Average Dry Weight (g) of Plant of Treated Area)/(Average Dry Weight (g) of Plant of Untreated Area)}×100 [Math. 1] Pots with a size of 36 cm^2 were filled with a dry field farming soil (alluvium). The soil of the top layer of 1 cm and seeds of weeds, namely southern crabgrass, Echinochloa crus-galli, Chenopodium album and Amaranthus viridis, 20 seeds each, were evenly mixed, and the top layer was gently pressed. Emulsions prepared using the compounds in Table 6 below according to Formulation Example 5 were diluted with water seven days after seeding, and the water-diluted agent solutions were sprayed to the soil surfaces at a ratio of 100 liters per 10 ares. A converted amount of the applied active ingredient corresponded to 120 g per 10 ares. The herbicidal effects were evaluated by the same standard as that in Test Example 1, 14 days after the treatment with the agents. In this regard, the compound numbers in Table 6 are the same as those in Table 1 and Table 2 above.

[2] = test system: Amaranthus viridis; assay: as above; details: 120 g/10 a, stem and leaf treatment seven days after seeding, 14 days after treatment
Text: as §1

[3] = test system: Monochoria vaginalis; assay: Herbicidal effect test by treatment of rice paddy soil (Test Example 1); details: 120 g/10 a, treated immediately after seeding, 14 days after treatment
Procedure: (§2) Wagner pots with an area of 1/10000 ares were filled with a paddy soil, and a compound fertilizer (N:P:K=17:17:17) was mixed after water was added, followed by soil puddling. Then, Echinochloa crus-galli, broad leaf weeds (Lindernia pyxidaria and Monochoria vaginalis) and Scirpus juncoides, 30 seeds each, were sown in a depth of 0 to 1 cm. Water was poured immediately after seeding, and the water depth was kept at about 3 cm. A subsequent management was conducted in a glass greenhouse. Immediately after that, emulsions prepared using the compounds in Table 3 below according to Formulation Example 5 were diluted with water, and a certain amount of the water-diluted agent solutions were dropped. A converted amount of the applied active ingredient corresponded to 120 g per 10 ares.
(§3) This test was conducted in a double system per one agent solution concentration area, and the herbicidal rates (%) were determined by the following equation (Math. 1) 14 days after the treatment with the agents.
(§4) Herbicidal Rate (%)={1−(Average Dry Weight (g) of Plant of Treated Area)/(Average Dry Weight (g) of Plant of Untreated Area)}×100 [Math. 1]

[4] = test system: Scirpus juncoides; assay: as above; details: 120 g/10 a, treated immediately after seeding, 14 days after treatment
Procedure: as §2, §3, §4

[5] = test system: Lindernia pyxidaria; assay: as above; details: 120 g/10 a, treated immediately after seeding, 14 days after treatment
Procedure: as §2, §3, §4

[6] = test system: Echinochloa crus-galli; assay: as above; details: 120 g/10 a, treated immediately after seeding, 14 days after treatment
Procedure: as §2, §3, §4

[7] = test system: southern crabgrass; assay: Herbicidal effect test by treatment of dry field farming soil (Test Example 3); details: 120 g/10 a, sprayed one day after seeding, 14 days after treatment
Text: as §1, with “Table 5” for “Table 6”, “water one day” for “water seven days”

[8] = test system: Chenopodium album; assay: as above; details: 120 g/10 a, sprayed one day after seeding, 14 days after treatment
Text: as §1, with “Table 5” for “Table 6”, “water one day” for “water seven days”

[9] = test system: Echinochloa crus-galli; assay: as above; details: 120 g/10 a, sprayed one day after seeding, 14 days after treatment
Text: as §1, with “Table 5” for “Table 6”, “water one day” for “water seven days”

[10] = test system: Amaranthus viridis; assay: as above; details: 120 g/10 a, sprayed one day after seeding, 14 days after treatment
Text: as §1, with “Table 5” for “Table 6”, “water one day” for “water seven days”

[11] = test system: Monochoria vaginalis; assay: Herbicidal effect test by treatment during growing period in paddy rice cultivation (Test Example 2); details: 120 g/10 a, treated seven days after seeding, 14 days after treatment
Text: as §4
as §2, with “after addition of water,” for “after water was added,”, “greenhouse. Emulsions” for “greenhouse. Immediately after that, emulsions”, “Table 4” for “Table 3”, “with water seven days after seeding,” for “with water,”, “ares. The test was conducted in a double system per one agent solution concentration area, and the herbicidal rates (%) were determined by the equation (Math. 1) 14 days after the treatment with the agents. In this regard, the compound numbers in Table 4 are the same as those in Table 1 and Table 2 above.” for “ares.”

[12] = test system: Scirpus juncoides; assay: as above; details: 120 g/10 a, treated seven days after seeding, 14 days after treatment
Text: as §4
as §2, with “after addition of water,” for “after water was added,”, “greenhouse. Emulsions” for “greenhouse. Immediately after that, emulsions”, “Table 4” for “Table 3”, “with water seven days after seeding,” for “with water,”, “ares. The test was conducted in a double system per one agent solution concentration area, and the herbicidal rates (%) were determined by the equation (Math. 1) 14 days after the treatment with the agents. In this regard, the compound numbers in Table 4 are the same as those in Table 1 and Table 2 above.” for “ares.”

[13] = test system: Lindernia pyxidaria; assay: as above; details: 120 g/10 a, treated seven days after seeding, 14 days after treatment
Text: as §4
as §2, with “after addition of water,” for “after water was added,”, “greenhouse. Emulsions” for “greenhouse. Immediately after that, emulsions”, “Table 4” for “Table 3”, “with water seven days after seeding,” for “with water,”, “ares. The test was conducted in a double system per one agent solution concentration area, and the herbicidal rates (%) were determined by the equation (Math. 1) 14 days after the treatment with the agents. In this regard, the compound numbers in Table 4 are the same as those in Table 1 and Table 2 above.” for “ares.”

[14] = test system: southern crabgrass; assay: Herbicidal effect test by treatment of stem and leaf in dry field farming (Test Example 4); details: 120 g/10 a, stem and leaf treatment seven days after seeding, 14 days after treatment
Text: as §1

[15] = test system: Echinochloa crus-galli; assay: as above; details: 120 g/10 a, stem and leaf treatment seven days after seeding, 14 days after treatment
Text: as §1

[16] = test system: Echinochloa crus-galli; assay: Herbicidal effect test by treatment during growing period in paddy rice cultivation (Test Example 2); details: 120 g/10 a, treated seven days after seeding, 14 days after treatment
Text: as §4
as §2, with “after addition of water,” for “after water was added,”, “greenhouse. Emulsions” for “greenhouse. Immediately after that, emulsions”, “Table 4” for “Table 3”, “with water seven days after seeding,” for “with water,”, “ares. The test was conducted in a double system per one agent solution concentration area, and the herbicidal rates (%) were determined by the equation (Math. 1) 14 days after the treatment with the agents. In this regard, the compound numbers in Table 4 are the same as those in Table 1 and Table 2 above.” for “ares.”

Row | SMILES | Herbicidal rate, Chenopodium album [1] [%] | Herbicidal rate, Amaranthus viridis [2] [%] | Herbicidal rate, Monochoria vaginalis [3] [%] | Herbicidal rate, Scirpus juncoides [4] [%] | Herbicidal rate, Lindernia pyxidaria [5] [%] | Herbicidal rate, Echinochloa crus-galli [6] [%] | Herbicidal rate, southern crabgrass [7] [%] | Herbicidal rate, Chenopodium album [8] [%] | Herbicidal rate, Echinochloa crus-galli [9] [%] | Herbicidal rate, Amaranthus viridis [10] [%] | Herbicidal rate, Monochoria vaginalis [11] [%] | Herbicidal rate, Scirpus juncoides [12] [%] | Herbicidal rate, Lindernia pyxidaria [13] [%] | Herbicidal rate, southern crabgrass [14] [%] | Herbicidal rate, Echinochloa crus-galli [15] [%] | Herbicidal rate, Echinochloa crus-galli [16] [%]
1 | COC1CCCCC1n1oc(=O)c(Cc2ccccc2N(C(=O)Oc2ccccc2)S(=O)(=O)C(F)(F)F)c1C (single isomer, unassigned) [Compound 289] | 90 | 90 | 100 | 100 | 100 | 100 | 90 | 60 | 90 | 40 | 90 | 90 | 90 | – | – | –
2 | COC1CCCC1n1oc(=O)c(Cc2ccccc2N(C(=O)CC(C)C)S(=O)(=O)C(F)(F)F)c1C (centres unmarked) [Compound 119] | 90 | 90 | 100 | 100 | 100 | 100 | 90 | 60 | 90 | 60 | 90 | 90 | 80 | 80 | 90 | 100
3 | CCCOC(=O)N(c1ccccc1Cc1c(C)n(C2CCCC2OC)oc1=O)S(=O)(=O)C(F)(F)F (centres unmarked) [Compound 200] | 90 | 90 | 100 | 100 | 100 | 100 | 90 | 60 | 90 | 60 | 90 | 90 | 80 | 80 | 90 | 100
4 | COC1CCCCC1n1oc(=O)c(Cc2ccccc2N(S(=O)(=O)C(F)(F)F)S(=O)(=O)C(F)(F)F)c1C (centres unmarked) [Compound 351, 1,1,1-trifluoro-N-[2-[[(2-methoxycyclohexyl)-3-methyl-5-oxoisoxazol-4-yl]methyl]phenyl]-N-(trifluoromethylsulfonyl)methanesulfonamide] | 80 | 80 | 100 | 90 | 100 | 100 | 90 | 60 | 90 | 90 | 80 | 90 | 80 | 80 | 90 | 100
5 | COC1CCCC1n1oc(=O)c(Cc2ccccc2N(C(=O)c2ccc(Cl)cc2)S(=O)(=O)C(F)(F)F)c1C (centres unmarked) [Compound 147] | 90 | 90 | 100 | 100 | 100 | 100 | 90 | 60 | 90 | 60 | 90 | 90 | 80 | 80 | 90 | 100
6 | COC1CCCC1n1oc(=O)c(Cc2ccccc2NS(=O)(=O)C(F)(F)F)c1C (centres unmarked) [Compound 59, 1,1,1-trifluoro-N-[2-[[(2-methoxycyclopentyl)-3-methyl-5-oxoisoxazol-4-yl]methyl]phenyl]methanesulfonamide] | 90 | 90 | 100 | 100 | 100 | 100 | 90 | 60 | 90 | 60 | 90 | 90 | 80 | 90 | 90 | 100
7 | COC1CCCC1n1oc(=O)c(Cc2ccccc2N(C(=O)OC(C)C)S(=O)(=O)C(F)(F)F)c1C (centres unmarked) [Compound 212] | 90 | 90 | 100 | 100 | 100 | 100 | 90 | 60 | 90 | 60 | 90 | 90 | 80 | 80 | 90 | 100
8 | COC1CCCC1n1oc(=O)c(Cc2ccccc2N(C(=O)Oc2ccccc2)S(=O)(=O)C(F)(F)F)c1C (centres unmarked) [Compound 286] | 90 | 90 | 100 | 100 | 100 | 100 | 90 | 60 | 90 | 60 | 90 | 90 | 80 | 80 | 90 | 100
